Source: US9132071B2, “Compositions containing quaternary ammonium compounds” (SANTEN SAS, priority 2006, dated 2015)

Key:
[1] = Emulsion zeta potential by electrophoretic mobility; format: physicochemical; conditions: 25° C., dilution 1:250
Method: Zeta potential can be measured by a zetameter such as Zetasizer 2000, Malvern Instruments Ltd, UK. The zeta potential of the emulsion droplet surface is determined by electrophoretic mobility. Measurements are performed at 25° C. following dilution at 1:250 of the emulsion in double distilled water. The electrophoretic mobility is converted into zeta potential values through the Smoluchowsky equation.

[2] = Emulsion droplet size by dynamic light scattering; format: physicochemical; conditions: 25° C., diluted in double distilled water
Method: Measurements are performed at 25° C. following dilution of the emulsion in double distilled water.

[3] = tested on: white male New Zealand rabbits; experiment: Ocular irritation, adaptation of the Draize test; format: in vivo; conditions: BAK C16 within an emulsion; 50 μL instilled, rabbit eye; FIG. 2
Method: The ocular irritation of the emulsions and solutions has been evaluated using an adaptation of the Draize test on white male New Zealand rabbits (2.75-3.00 kg). Fifty μL of emulsion or solution were instilled unilaterally and 50 μL of NaCl 0.9% in the other eye of the three rabbits per group. General aspect assessment of the animals was performed (behavior, blinking, itching of the eye with forelegs) as well as eye tissue evaluation (conjunctiva, cornea, iris) after instillation, 1, 24, 48 and 72 hours. Observations were scored according to the Draize test protocol.

CCCCCCCCCCCC[N+](C)(C)C.[Br-] [ATAB C12, lauryl trimethyl ammonium bromide]
Emulsions zeta potential ([1]; emulsion containing 0.0025% QA): −35.5 mV
Emulsions zeta potential ([1]; emulsion containing 0.005% QA): −14.6 mV

CCCCCCCCCCCCCC[N+](C)(C)Cc1ccccc1 [BAK C14, myristalkonium chloride]
Emulsion droplet size ([2]; emulsion containing 0.0025% QA): 204 nm
Emulsion droplet size ([2]; emulsion containing 0.005% QA): 190 nm
Emulsion droplet size ([2]; emulsion containing 0.01% QA): 190 nm
Emulsion droplet size ([2]; emulsion containing 0.02% QA): 155 nm
Emulsion droplet size ([2]; emulsion containing 0.04% QA): 238 nm
Emulsion droplet size ([2]; emulsion containing 0.1% QA): 185 nm
Emulsions zeta potential ([1]; emulsion containing 0.0025% QA): +11.4 mV
Emulsions zeta potential ([1]; emulsion containing 0.005% QA): +19.6 mV
Emulsions zeta potential ([1]; emulsion containing 0.01% QA): +22.9 mV
Emulsions zeta potential ([1]; emulsion containing 0.02% QA): +28.4 mV
Emulsions zeta potential ([1]; emulsion containing 0.04% QA): +39.3 mV
Emulsions zeta potential ([1]; emulsion containing 0.1% QA): +44.5 mV

CCCCCCCCCCCC[N+](C)(C)Cc1ccccc1 [BAK C12, benzododecinium chloride]
Emulsion droplet size ([2]; emulsion containing 0.005% QA): 198 nm
Emulsion droplet size ([2]; emulsion containing 0.01% QA): 263 nm
Emulsion droplet size ([2]; emulsion containing 0.02% QA): 230 nm
Emulsion droplet size ([2]; emulsion containing 0.04% QA): 225 nm
Emulsion droplet size ([2]; emulsion containing 0.1% QA): 180 nm
Emulsions zeta potential ([1]; emulsion containing 0.005% QA): −6.9 mV
Emulsions zeta potential ([1]; emulsion containing 0.01% QA): +4.2 mV
Emulsions zeta potential ([1]; emulsion containing 0.02% QA): +7.9 mV
Emulsions zeta potential ([1]; emulsion containing 0.04% QA): +16.8 mV
Emulsions zeta potential ([1]; emulsion containing 0.1% QA): +23.8 mV

CCCCCCCCCCCCCCCC[N+](C)(C)C.[Br-] [ATAB C16, cetyl trimethyl ammonium bromide]
Emulsion droplet size ([2]; emulsion containing 0.0025% QA): 222 nm
Emulsion droplet size ([2]; emulsion containing 0.005% QA): 212 nm
Emulsions zeta potential ([1]; emulsion containing 0.0025% QA): +11.9 mV
Emulsions zeta potential ([1]; emulsion containing 0.005% QA): +20.2 mV

CCCCCCCCCCCCCCCC[N+](C)(C)Cc1ccccc1 [BAK C16, cetylkonium chloride]
Ocular irritation (toxicity), Draize score [3]: unexpected decrease of its toxicity
Emulsion droplet size ([2]; emulsion containing 0.001% QA): 220 nm
Emulsion droplet size ([2]; emulsion containing 0.0025% QA): 210 nm
Emulsion droplet size ([2]; emulsion containing 0.005% QA): 148 nm
Emulsion droplet size ([2]; emulsion containing 0.01% QA): 180 nm
Emulsion droplet size ([2]; emulsion containing 0.02% QA): 155 nm
Emulsion droplet size ([2]; emulsion containing 0.04% QA): 188 nm
Emulsion droplet size ([2]; emulsion containing 0.1% QA): 183 nm
Emulsions zeta potential ([1]; emulsion containing 0.001% QA): +16.2 mV
Emulsions zeta potential ([1]; emulsion containing 0.0025% QA): +24.4 mV
Emulsions zeta potential ([1]; emulsion containing 0.005% QA): +31.4 mV
Emulsions zeta potential ([1]; emulsion containing 0.01% QA): +36.7 mV
Emulsions zeta potential ([1]; emulsion containing 0.02% QA): +44.1 mV
Emulsions zeta potential ([1]; emulsion containing 0.04% QA): +47.2 mV
Emulsions zeta potential ([1]; emulsion containing 0.1% QA): +48.9 mV
